Measurements taken from PubChem BioAssay AID2060599 (Molecular Pharmacology Branch, DTP, NCI, 2025).

Tested on: 817829-284-R-J1-PDC complex spheroids, viability
Test: Anticancer human tumor 817829-284-R-J1-PDC patient-derived colon adenocarcinoma cell line growth inhibition [CLK]
Conditions: for IC50: curve of first compound; for viability, T/C: stronger effect = lower value; active means viability on the fitted dose curve at most 10% of control; inactive means the rest
Summary of the method: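 Multi-cell-type spheroids combined patient-derived tumor cells with HUVEC endothelial cells and human mesenchymal stem cells. Paired agents were dosed in half-log steps down from about clinical Cmax, or from 10 microM where Cmax was unknown.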

[1] = second compound 0.0316 µM, first compound 0.0316 µM
[2] = second compound 0.0316 µM, first compound 0.1 µM
[3] = second compound 0.0316 µM, first compound 0.316 µM
[4] = second compound 0.0316 µM, first compound 1 µM
[5] = second compound 0.0316 µM, first compound 3.16 µM
[6] = second compound 0.0316 µM, first compound 10 µM
[7] = second compound 0.1 µM, first compound 0.0316 µM
[8] = second compound 0.1 µM, first compound 0.1 µM
[9] = second compound 0.1 µM, first compound 0.316 µM
[10] = second compound 0.1 µM, first compound 1 µM
[11] = second compound 0.1 µM, first compound 3.16 µM
[12] = second compound 0.1 µM, first compound 10 µM
[13] = second compound 0.316 µM, first compound 0.0316 µM
[14] = second compound 0.316 µM, first compound 0.1 µM
[15] = second compound 0.316 µM, first compound 0.316 µM
[16] = second compound 0.316 µM, first compound 1 µM
[17] = second compound 0.316 µM, first compound 3.16 µM
[18] = second compound 0.316 µM, first compound 10 µM
[19] = second compound 1 µM, first compound 0.0316 µM
[20] = second compound 1 µM, first compound 0.1 µM
[21] = second compound 1 µM, first compound 0.316 µM
[22] = second compound 1 µM, first compound 1 µM
[23] = second compound 1 µM, first compound 3.16 µM
[24] = second compound 1 µM, first compound 10 µM
[25] = second compound 3.16 µM, first compound 0.0316 µM
[26] = second compound 3.16 µM, first compound 0.1 µM
[27] = second compound 3.16 µM, first compound 0.316 µM
[28] = second compound 3.16 µM, first compound 1 µM
[29] = second compound 3.16 µM, first compound 3.16 µM
[30] = second compound 3.16 µM, first compound 10 µM
[31] = second compound 10 µM, first compound 0.0316 µM
[32] = second compound 10 µM, first compound 0.1 µM
[33] = second compound 10 µM, first compound 0.316 µM
[34] = second compound 10 µM, first compound 1 µM
[35] = second compound 10 µM, first compound 3.16 µM
[36] = second compound 10 µM, first compound 10 µM
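Further: spheroids exposed to the agents for seven days before readout.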

CC(C)CC(NC(=O)C(Cc1ccccc1)NC(=O)c1cnccn1)B(O)O (stereo not drawn) + CNC(=O)c1ccc(Nc2nc(OC3CCCC3)c3c(-c4ccc5nc(C)oc5c4)c[nH]c3n2)c(OC)c1
< 0.000949 µM: IC50 (second compound 0.0316 µM) | IC50 (second compound 0.1 µM) | IC50 (second compound 0.316 µM) | IC50 (second compound 1 µM) | IC50 (second compound 3.16 µM) | IC50 (second compound 10 µM)
active: viability, T/C (second compound 0.0316 µM, first compound 0.003 µM) 0.67% | viability, T/C (second compound 0.0316 µM, first compound 0.00949 µM) 0.14% | viability, T/C (second compound 0.0316 µM, first compound 0.03 µM) 0.16% | viability, T/C (second compound 0.0316 µM, first compound 0.0949 µM) 0.14% | viability, T/C (second compound 0.0316 µM, first compound 0.3 µM) 0.09% | viability, T/C (second compound 0.1 µM, first compound 0.003 µM) 0.93% | viability, T/C (second compound 0.1 µM, first compound 0.00949 µM) 0.22% | viability, T/C (second compound 0.1 µM, first compound 0.03 µM) 0.17% | viability, T/C (second compound 0.1 µM, first compound 0.0949 µM) 0.11% | viability, T/C (second compound 0.1 µM, first compound 0.3 µM) 0.1% | viability, T/C (second compound 0.316 µM, first compound 0.003 µM) 0.45% | viability, T/C (second compound 0.316 µM, first compound 0.00949 µM) 0.13% | viability, T/C (second compound 0.316 µM, first compound 0.03 µM) 0.6% | viability, T/C (second compound 0.316 µM, first compound 0.0949 µM) 0.08% | viability, T/C (second compound 0.316 µM, first compound 0.3 µM) 0.13% | viability, T/C (second compound 1 µM, first compound 0.003 µM) 0.18% | viability, T/C (second compound 1 µM, first compound 0.00949 µM) 0.14% | viability, T/C (second compound 1 µM, first compound 0.03 µM) 0.09% | viability, T/C (second compound 1 µM, first compound 0.0949 µM) 0.13% | viability, T/C (second compound 1 µM, first compound 0.3 µM) 0.16% | viability, T/C (second compound 3.16 µM, first compound 0.003 µM) 0.39% | viability, T/C (second compound 3.16 µM, first compound 0.00949 µM) 0.14% | viability, T/C (second compound 3.16 µM, first compound 0.03 µM) 0.1% | viability, T/C (second compound 3.16 µM, first compound 0.0949 µM) 0.22% | viability, T/C (second compound 3.16 µM, first compound 0.3 µM) 0.09% | viability, T/C (second compound 10 µM, first compound 0.003 µM) 0.15% | viability, T/C (second compound 10 µM, first compound 0.00949 µM) 0.16% | viability, T/C (second compound 10 µM, first compound 0.03 µM) 0.14% | viability, T/C (second compound 10 µM, first compound 0.0949 µM) 0.23% | viability, T/C (second compound 10 µM, first compound 0.3 µM) 0.11%
inactive: viability, T/C (second compound 0.0316 µM, first compound 0.000949 µM) 31.9% | viability, T/C (second compound 0.1 µM, first compound 0.000949 µM) 25% | viability, T/C (second compound 0.316 µM, first compound 0.000949 µM) 23% | viability, T/C (second compound 1 µM, first compound 0.000949 µM) 14.7% | viability, T/C (second compound 3.16 µM, first compound 0.000949 µM) 12.5% | viability, T/C (second compound 10 µM, first compound 0.000949 µM) 11.3%

CC(CO)NC(=O)c1cc(-c2ccc(Cl)cc2)nn(-c2cnn(C)c2)c1=O (stereo not drawn) + CNC(=O)c1ccc(Nc2nc(OC3CCCC3)c3c(-c4ccc5nc(C)oc5c4)c[nH]c3n2)c(OC)c1
inactive: viability, T/C [1] 38.7% | viability, T/C [2] 34.8% | viability, T/C [3] 32.9% | viability, T/C [4] 31% | viability, T/C [5] 28.5% | viability, T/C [6] 23.4% | viability, T/C [7] 24.2% | viability, T/C [8] 23.8% | viability, T/C [9] 27.7% | viability, T/C [10] 21.3% | viability, T/C [11] 39.8% | viability, T/C [12] 21.4% | viability, T/C [13] 27.4% | viability, T/C [14] 29.7% | viability, T/C [15] 24.1% | viability, T/C [16] 24.7% | viability, T/C [17] 16.1% | viability, T/C [18] 19.2% | viability, T/C [19] 14.1% | viability, T/C [20] 36.8% | viability, T/C [21] 16% | viability, T/C [22] 16.2% | viability, T/C [23] 15.8% | viability, T/C [24] 10.7% | viability, T/C [25] 22.3% | viability, T/C [26] 20.2% | viability, T/C [27] 18.7% | viability, T/C [28] 17.9% | viability, T/C [29] 18.6% | viability, T/C [30] 19.4% | viability, T/C [31] 24.3% | viability, T/C [32] 16.7% | viability, T/C [33] 41.6% | viability, T/C [34] 18.7% | viability, T/C [35] 14.1% | viability, T/C [36] 16.8%
< 0.0316 µM: IC50 (second compound 0.0316 µM) | IC50 (second compound 0.1 µM) | IC50 (second compound 0.316 µM) | IC50 (second compound 1 µM) | IC50 (second compound 3.16 µM) | IC50 (second compound 10 µM)

CC(Nc1ccc2c(c1)OCCn1cc(N3C(=O)OCC3C(F)F)nc1-2)C(N)=O (stereo not drawn) + CNC(=O)c1ccc(Nc2nc(OC3CCCC3)c3c(-c4ccc5nc(C)oc5c4)c[nH]c3n2)c(OC)c1
inactive: viability, T/C [1] 40% | viability, T/C [2] 32.3% | viability, T/C [3] 42.4% | viability, T/C [4] 48.6% | viability, T/C [5] 29.8% | viability, T/C [6] 20.4% | viability, T/C [7] 20.4% | viability, T/C [8] 26.4% | viability, T/C [9] 20.2% | viability, T/C [10] 20% | viability, T/C [11] 33.4% | viability, T/C [12] 15.1% | viability, T/C [13] 37.9% | viability, T/C [14] 19.6% | viability, T/C [15] 19.9% | viability, T/C [16] 21.6% | viability, T/C [17] 18.5% | viability, T/C [18] 15.5% | viability, T/C [19] 23.4% | viability, T/C [20] 20.8% | viability, T/C [21] 16.7% | viability, T/C [22] 17.6% | viability, T/C [23] 16.1% | viability, T/C [24] 15.3% | viability, T/C [25] 22.2% | viability, T/C [26] 18.8% | viability, T/C [27] 16.5% | viability, T/C [28] 18.6% | viability, T/C [29] 13.1% | viability, T/C [30] 13.6% | viability, T/C [31] 15.1% | viability, T/C [32] 16.6% | viability, T/C [33] 14% | viability, T/C [34] 18.2% | viability, T/C [35] 16.8% | viability, T/C [36] 9.33%
< 0.0316 µM: IC50 (second compound 0.0316 µM) | IC50 (second compound 0.1 µM) | IC50 (second compound 0.316 µM) | IC50 (second compound 1 µM) | IC50 (second compound 3.16 µM) | IC50 (second compound 10 µM)

COc1c(OCCCN2CCOCC2)ccc2c3n(c(=NC(=O)c4cnc(N)nc4)nc12)CCN3 + CNC(=O)c1ccc(Nc2nc(OC3CCCC3)c3c(-c4ccc5nc(C)oc5c4)c[nH]c3n2)c(OC)c1
< 0.00316 µM: IC50 (second compound 0.1 µM) | IC50 (second compound 0.316 µM) | IC50 (second compound 1 µM) | IC50 (second compound 3.16 µM) | IC50 (second compound 10 µM)
active: viability, T/C [3] 4.03% | viability, T/C [4] 1.87% | viability, T/C [8] 9.46% | viability, T/C [9] 3.69% | viability, T/C [10] 1.76% | viability, T/C [15] 3.22% | viability, T/C [16] 2.08% | viability, T/C [20] 9.58% | viability, T/C [21] 2.07% | viability, T/C [22] 1.92% | viability, T/C [26] 5.77% | viability, T/C [27] 2.1% | viability, T/C [28] 1.82% | viability, T/C [33] 6.46% | viability, T/C [34] 1.67%
inactive: viability, T/C (second compound 0.0316 µM, first compound 0.00316 µM) 39.8% | viability, T/C (second compound 0.0316 µM, first compound 0.01 µM) 41.3% | viability, T/C [1] 74.9% | viability, T/C [2] 19.1% | viability, T/C (second compound 0.1 µM, first compound 0.00316 µM) 24% | viability, T/C (second compound 0.1 µM, first compound 0.01 µM) 21% | viability, T/C [7] 15.8% | viability, T/C (second compound 0.316 µM, first compound 0.00316 µM) 20.6% | viability, T/C (second compound 0.316 µM, first compound 0.01 µM) 22% | viability, T/C [13] 18.4% | viability, T/C [14] 9.72% | viability, T/C (second compound 1 µM, first compound 0.00316 µM) 31.5% | viability, T/C (second compound 1 µM, first compound 0.01 µM) 20.5% | viability, T/C [19] 11.6% | viability, T/C (second compound 3.16 µM, first compound 0.00316 µM) 26.7% | viability, T/C (second compound 3.16 µM, first compound 0.01 µM) 24% | viability, T/C [25] 11.9% | viability, T/C (second compound 10 µM, first compound 0.00316 µM) 19.7% | viability, T/C (second compound 10 µM, first compound 0.01 µM) 16% | viability, T/C [31] 19.1% | viability, T/C [32] 6.5%
0.0338 µM: IC50 (second compound 0.0316 µM)
